The values that follow are results of earlier work, collected in patent US20230310544A1, “ANTI-RNA VIRAL PHARMACEUTICAL COMBINATION THERAPY WITH APROTININ + anti-RNA DRUG” (ASAVI LLC, priority 2022, published 2023).

One data set has as its system COVID-19. The note with it: COVID-19 patients.
In another data set the test system is SARS-CoV-2. The note with it: human, in vivo.

Consider `NC(=O)c1nc(F)c[nH]c1=O` [FVP, favipiravir], for which, in the data set on COVID-19, the “time to clinical improvement” value is on record as no more than 14 days and the “time to viral clearance” value is no more than 7 days. Besides, in the data set on SARS-CoV-2, the “Median time to elimination of SARS-CoV-2 confirmed by RT-PCR, days (IQR)” value is 4.5 days; the “Median time to improvement in clinical status by 2 points on the WHO-OSCI, days (IQR)” value is reported as 14.0 days; the “Median time to normalization of body temperature (<37° C.), days (IQR)” value is reported as 2.0 days.
